Measurements published in publication PMC11048244, “Development of Improved Spectrophotometric Assays for Biocatalytic Silyl Ether Hydrolysis” (Biomolecules, 2024).

Tested on: T1, TF-Silα-Strep (silicatein-α, Silα)
T1 construct: trigger factor fused at N-terminus, Strep-tag II at C-terminus; recombinant, StrepTrap purified
Assay: UV-VIS spectrophotometric silyl ether hydrolysis, net initial rates
Assay type: biochemical
Conditions: 10% v/v 1,4-dioxane, 50 mM Tris, 100 mM NaCl, pH 8.5
From the text: UV-VIS spectrophotometric silyl ether hydrolysis, net initial rates on TF-Silα-Strep (silicatein-α, Silα)

Cc1cc(O[Si](C)(C)C(C)(C)C)ccc1[N+](=O)[O-] [compound 5, tert-Butyldimethyl(3-methyl-4-nitrophenoxy)silane]
Km: 34.6 ± 4.11 µM

CC(C)[Si](Oc1ccc([N+](=O)[O-])cc1)(C(C)C)C(C)C [compound 3, 3]
Km: 20.4 ± 8.13 µM

CC(C)C(C)(C)[Si](C)(C)Oc1ccc([N+](=O)[O-])cc1 [compound 2, 2]
Km: 24.1 ± 5 µM

CC(C)(C)[Si](C)(C)Oc1ccc([N+](=O)[O-])cc1 [compound 1, tert-butyldimethyl(4-nitrophenoxy)silane]
Km: 44.4 ± 11.9 µM

Cc1cc([N+](=O)[O-])ccc1O[Si](C)(C)C(C)(C)C [compound 4, tert-Butyldimethyl(2-methyl-4-nitrophenoxy)silane]
Km: 72.5 ± 15.3 µM
